Here are results for one molecule from paper PMC5535166 (Toxins, 2017).

The assay concerns the target T1, rShGST (recombinant Schistoma japonicum GST) (Schistosoma japonicum, UniProt P08515).
T1 construct: GST expressed from the empty vector pGEX-6P-1 (vector-encoded C-terminal linker), E. coli BL21(DE3), Glutathione Sepharose
Kind of assay: GST activity with CDNB, absorbance at […] nm. In kind it is biochemical. Conditions: 100 µM inhibitor; 1 mM CDNB, 1 mM GSH, 0.1 M phosphate pH 6.5.

T1 sequence (P08515 2-218): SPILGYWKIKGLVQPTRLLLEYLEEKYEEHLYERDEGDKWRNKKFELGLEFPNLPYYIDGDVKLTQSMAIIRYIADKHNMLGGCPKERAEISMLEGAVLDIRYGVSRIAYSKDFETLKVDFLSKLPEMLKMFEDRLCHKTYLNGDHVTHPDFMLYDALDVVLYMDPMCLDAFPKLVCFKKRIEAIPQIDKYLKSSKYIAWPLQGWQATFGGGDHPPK

Turning to `C=C(CC)C(=O)c1ccc(OCC(=O)O)c(Cl)c1Cl` [ethacrynic acid], the “GST activity, % of control at 100 μM” value is “Ethacrynic acid strongly inhibited the GST activity of recombinant Schistoma japonicum GST (rShGST)”.
